Experimental data: patent US12661362B2, “Methods for the prevention and treatment of hearing loss” (Ting Therapeutics LLC, priority 2020, dated 2026)

Legend:
zebrafish neuromast HCs [1] = assay: Zebrafish lateral-line neuromast hair cell protection against Cisplatin; assay type: in vivo, Danio rerio; conditions: doses of 0.002, 0.0183, 0.165 and 1.48 μM; Cisplatin 4 hours
Procedure: Danio rerio experimental larvae were obtained by pair mating of adult fish maintained at Creighton University by standard methods approved by the Institutional Animal Care and Use Committee. […] We used Tg(pou4f3:mGFP) expressing a membrane bound GFP in HCs. Experimental fish were maintained at 28.5° C. in E3 media (5 mM NaCl, 0.17 mM KCl, 0.33 mM CaCl2) and […], pH 7.2). Animals were cryoanaesthetized after drug treatment and prior to fixation. The neuromasts inspected, S03 and 01-2, were part of the cranial system and included the otic, middle, and opercular neuromasts.
Subsequently, animals were transferred to E3 water for 5 hours and fixed in 4% paraformaldehyde (PFA) overnight (26). Neuromast HCs were immunolabeled with anti-otoferlin (HCS-1, DSHB) and anti-GFP (NB100-1614, Novus Biologicals). These two markers were used to detect and count neuromast HCs to reduce the chances of missing some of the HCs after the treatment since we previously noticed that incubation with the compounds can affect GFP expression more difficult to detect under a fluorescence microscope. Otic, middle, and opercular neuromasts were identified, and HCs at S03 (supraorbital line neuromast) and 01-2 (Otic line neuromasts) were manually counted using a Zeiss AxioSkop 2 fluorescence microscope with a 40× oil objective. Compounds were then evaluated on efficiency and potency, with the top-rated compounds showing high protection at lower concentrations.

FVB/NJ mice = assay: Safety monitoring of drugs IP in FVB/NJ mice, with or without Cisplatin; assay type: in vivo, mouse; conditions: for weight loss, pain and distress: Niclosamide 10, Ingenol 0.3, Elesclomol 5 mg/kg/day IP, 4 consecutive days
Procedure: To investigate the drugs' effects on mammalian auditory function in vivo, we first treated 5-7 weeks old FVB/NJ mice with […] drug candidates: Niclosamide (10 mg/kg/day), Ingenol (0.3 mg/kg/day), Elesclomol (5 mg/kg/day), for 4 consecutive days (IP) to monitor safety of the drugs. All tested doses were determined based on previous published data showing maximum non-toxic dose through intraperitoneal (IP) injection.
Baseline auditory brainstem response (ABR) were measured on 16 mice divided in 3 groups receiving Ingenol, Elesclomol, and Niclosamide. The mice received the drug doses described above, then on day 2 of drug injection mice also received 30 mg/kg Cisplatin (IP; 4 mice per group).

HEI-OC1 cells = assay: Caspase-Glo 3/7 assay in HEI-OC1 cells treated with Cisplatin; assay type: cell-based, mouse; conditions: Cisplatin 50 μM; for caspase activity: at a dosage of ~40 μM
Procedure: Now referring to FIG. 3A, and FIGS. 3D-3E, compounds protect from cisplatin toxicity in the mouse inner ear cell line. House Ear Institute-Organ of Corti 1 (HEI-OC1) cells (House Research Institute) were maintained in high-glucose Dulbecco's modified Eagle medium supplemented with 10% fetal bovine serum (Life Technologies, USA) at 33° C. and 10% CO2 as previously described (Kalinec et al., 2003). Cells were seeded at 8,000 cells/well in 96 well plates and left to attach overnight. Now referring to FIG. 3A, For the drug screening, HEI-OC1 cells were pretreated with 30 drug candidates at concentrations ranging from 2 nM to 40 μM one hour before receiving cisplatin. The cisplatin dose (50 μM) was based on our previously published dose response curve. The cells were co-incubated with cisplatin and drug candidates for an additional 19 hours prior to Caspase-Glo 3/7 assay (Promega, Madison, WI) as previously shown. Additionally, […] kenpaullone-treated cells were used as positive controls to validate our results. The DMSO concentration in drug preparation was adjusted to 0.1% v/v and it was verified that 0.5% DMSO had no effect on the cell death kinetics (Hall et al., 2014). Results of the assay were run in triplicate and normalized to cisplatin-only and media-only controls. The percent caspase activity was used to determine the relative protective effect of each compound. The luminescence detection representing caspase activity in each well was obtained using a Cytation Hybrid Multi-Mode Reader (Biotek, Winooski, VT, USA). The percent protection of the cells was calculated using caspase 3/7 readouts and the following formula: […]
In the following examples, Niclosamide, 5-chloro-N-(2-chloro-4-nitrophenyl)-2-hydroxy-benzamide, with a ≥95% purity was used for all experiments (Cayman Chemical, USA).

[2] = chemotherapy; cited from earlier work
zebrafish neuromast HCs [3] = assay: Niclosamide/ezetimibe combination hair cell protection in Cisplatin-treated zebrafish (Loewe synergy); assay type: in vivo; conditions: 1.48 μM, cisplatin 300 μM
Procedure: Now referring to FIGS. 6A-6B, 5 dpf zebrafish were either incubated with vehicle (DMSO), cisplatin alone at 300 μM concentration, cisplatin and ezetimibe (0.002 μM to 13.3 μM), cisplatin and niclosamide (0.02 nM to 18.3 nM), or cisplatin and combination ezetimibe/niclosamide. After 6 hours, animals were transferred to fresh water for 1 hour and then sacrificed and processed for immunohistochemistry and HC count as described above. To further elucidate whether Niclosamide, synergizes with Nrf2 activators to protect zebrafish HCs from Cisplatin damage, we tested the extent of HC damage in presence of Niclosamide and a Nrf2 activator, ezetimibe.
A three-dimensional contour plot (A) showing dose response of neuromast hair cell protection in zebrafish treated with varying concentrations of niclosamide and ezetimibe mapped to synergy distribution. […] Other dose combinations showing synergy are shown in dark blue boxes. Dose combinations with scores of 0 and 1 show additive effect. *P<5×10−2; **P<10−3, ***P<10−4 versus control fish, One-sample t-test run by the Combenefit software44. Data is shown as mean±standard deviation.
Zebrafish were treated with combinations of Niclosamide (ranging from 0.02-18.3 nM) and EZ (ranging from 0.0183-13.3 μM).

CC1=C[C@]23C(=O)[C@@H](C=C(CO)[C@@H](O)[C@]2(O)[C@H]1O)[C@H]1[C@@H](C[C@H]3C)C1(C)C [Ingenol]
protection against CIHL in zebrafish (zebrafish neuromast HCs [1]): showed protection against CIHL
weight loss, pain and distress (FVB/NJ mice): None of the mice showed reduced weight loss or signs of pain and distress
IC50 (HEI-OC1 cells; Mus musculus, HEI-OC1, HEI-OC1 cells, read-out: calculated IC50 (percent protection from caspase 3/7 readout)): 1540 nM
caspase activity (HEI-OC1 cells): 30%

N.N.[Cl][Pt][Cl] [Cisplatin]
weight loss (FVB/NJ mice; Cisplatin alone, 30 mg/kg IP): 10-15%
treated cancer patients with permanent hearing loss [2]: 40-60%

CN(NC(=O)CC(=O)NN(C)C(=S)c1ccccc1)C(=S)c1ccccc1 [Elesclomol]
weight loss, pain and distress (FVB/NJ mice): None of the mice showed reduced weight loss or signs of pain and distress
caspase activity (HEI-OC1 cells): 20%
caspase-3/7 activity relative to control cells (HEI-OC1 cells; dose of 40 μM): reduce caspase activity to comparable levels as control cells

O=C1[C@H](CC[C@H](O)c2ccc(F)cc2)[C@@H](c2ccc(O)cc2)N1c1ccc(F)cc1 [Ezetimibe]
HC per neuromast counts, compound alone (zebrafish neuromast HCs [3]): higher HC per neuromast counts
